In patent EP0126944B1, “Use of 6-(Z) or 2-(Z) configurational 3,7,11-trimethyl-dodeca-2,6,10-trien-1-ols as bacteriostats in cosmetic products” (Dragoco Gerberding & Co. GmbH, priority 1983, dated 1984):

Tests used:
Assay in all cases: Vertical diffusion test (impregnated filter paper embedded in agar)
Format in all cases: cell-based
[1] = tested on: Staphylococcus aureus SG 511; details: for Vertikaler Diffusionstest, Staphylococcus aureus SG 511 10^4 / Vertikaler Diffusionstest, Staphylococcus aureus SG 511 10^6 KBE/ml / antibakterielle Wirkung: 0,3 %; for Vertikaler Diffusionstest, Staphylococcus aureus SG 511 10^4 / Vertikaler Diffusionstest, Staphylococcus aureus SG 511 10^6 KBE/ml: 0,2 ml/ 15,9 cm^2; for Vertikaler Diffusionstest, Staphylococcus aureus SG 511 10^4: 10^4 KBE/ml; for antibakterielle Wirkung: Tabelle 1
From the text: (§1) Die mikrobiologischen Prüfungen wurden mit den Bakterienarten Staphylococcus aureus, Corynebacterium species und Staphylococcus epidermidis durchgeführt. Es wurden jeweils Konzentrationen von 0,3 % der Verbindungen 1a, b, c, 2 gegen unterschiedliche Keimzahlen eingesetzt und 1. mit einer Aufschwemmung von 10^4 koloniebildenden Einheiten/ml (KBE/ml) und 2. mit 10^6 KBE/ml versehen. Die Durchführung der Untersuchung erfolgte in üblicher Weise, indem Filterpapierplättchen mit einer Fläche von 15,9 cm^2 mit je 0,2 ml der 0,3 % igen alkoholischen Konzentrationen beschickt wurden. Nach Trocknen der aufgebrachten Lösungen wurden die Filterpapierplättchen dann in den Agar von Petrischalen eingebettet, so daß die Oberfläche mit einer dünnen Agarschicht überschichtet werden konnte. Danach wurde die ganze Platte mit den Testbakterien in unterschiedlicher Keimkonzentration beimpft. (Tabelle 1)

[2] = tested on: Corynebacterium species; details: 0,3 %; for Vertikaler Diffusionstest, Corynebacteriumt species 10^4 / Vertikaler Diffusionstest, Corynebacteriumt species 10^6 KBE/ml: 0,2 ml/ 15,9 cm^2; for Vertikaler Diffusionstest, Corynebacteriumt species 10^4: 10^4 KBE/ml; for antibakterielle Wirkung: Tabelle 1, Corynebacterium species
From the text: as §1

[3] = tested on: Staphylococcus epidermidis; details: for Vertikaler Diffusionstest, Staphylococcus epidermidis 10^4 / Vertikaler Diffusionstest, Staphylococcus epidermidis 10^6 KBE/ml / Hemmung / antibakterielle Wirkung: 0,3 %; for Vertikaler Diffusionstest, Staphylococcus epidermidis 10^4 / Vertikaler Diffusionstest, Staphylococcus epidermidis 10^6 KBE/ml: 0,2 ml/ 15,9 cm^2; for Vertikaler Diffusionstest, Staphylococcus epidermidis 10^4: 10^4 KBE/ml; for Hemmung / antibakterielle Wirkung: Tabelle 1
From the text: as §1

| SMILES | Vertikaler Diffusionstest, Staphylococcus aureus SG 511 10^4 [1] | Vertikaler Diffusionstest, Staphylococcus aureus SG 511 10^6 KBE/ml [1] | Wirksamkeit ([1]; compared with 1a, b, c, Staphylococcus aureus) | Vertikaler Diffusionstest, Corynebacteriumt species 10^4 [2] | Vertikaler Diffusionstest, Corynebacteriumt species 10^6 KBE/ml [2] | Vertikaler Diffusionstest, Staphylococcus epidermidis 10^4 [3] | Vertikaler Diffusionstest, Staphylococcus epidermidis 10^6 KBE/ml [3] | Wirksamkeit ([3]; compared with 1a, b, c, Staphylococcus epidermidis) | antibakterielle Wirkung ([1]; Staphylococcus aureus) | antibakterielle Wirkung [2] | Hemmung ([3]; Staphylococcus epidermidis) | antibakterielle Wirkung ([3]; Staphylococcus epidermidis) |
| --- | --- | --- | --- | --- | --- | --- | --- | --- | --- | --- | --- | --- |
| CC(C)=CCCC(C)=CCCC(C)=CCO [Substanz 2, Farnesol, reference compound] | 0 - 1 | 0 - 1 | etwas geringerer Wirksamkeit | 0 | 0 | 1 - 2 | 1 - 2 | etwas geringerer Wirksamkeit |  |  |  |  |
| CC(C)=CCC/C(C)=C\CC/C(C)=C\CO [Substanz 1c] | 0 | 0 |  | 0 | 0 | 0 | 0 - 1 |  | deutliche antibakterielle Wirkung | deutliche antibakterielle Wirkung | fast totale Hemmung | deutliche antibakterielle Wirkung |
| CC(C)=CCC/C(C)=C\CC/C(C)=C/CO [Substanz 1b] | 0 | 0 |  | 0 | 0 | 0 | 0 - 1 |  | deutliche antibakterielle Wirkung | deutliche antibakterielle Wirkung | fast totale Hemmung | deutliche antibakterielle Wirkung |
| CC(C)=CCC/C(C)=C/CC/C(C)=C\CO [Substanz 1a] | 0 | 0 |  | 0 | 0 | 0 - 1 | 0 - 1 |  | deutliche antibakterielle Wirkung | deutliche antibakterielle Wirkung | fast totale Hemmung | deutliche antibakterielle Wirkung |
